Laboratory results taken from ChEMBL document CHEMBL4308841, “Synthesis, in vitro antiproliferative activity, and kinase inhibitory effects of pyrazole-containing diarylureas and diarylamides” (Eur J Med Chem, 2018).

What was measured:
SF-295 = experiment: Growth inhibition of human SF295 cells assessed as cell growth at 0.01 uM incubated for 48 hrs by sulforhodamine B assay relative to control; format: functional; settings: SF-295, 48 h, read-out: Activity
OVCAR-4 = experiment: Growth inhibition of human OVCAR4 cells assessed as cell growth at 1 uM incubated for 48 hrs by sulforhodamine B assay relative to control; format: functional; settings: OVCAR-4, 48 h, read-out: Activity
CCRF-CEM = experiment: Growth inhibition of human CCRF-CEM cells assessed as cell growth at 0.01 uM incubated for 48 hrs by sulforhodamine B assay relative to control; format: functional; settings: read-out: Activity
MCF7 [1] = experiment: Growth inhibition of human MCF7 cells assessed as cell growth at 0.01 uM incubated for 48 hrs by sulforhodamine B assay relative to control; format: functional; settings: MCF7, 48 h, read-out: Activity
SW-620 = experiment: Growth inhibition of human SW620 cells assessed as cell growth at 0.1 uM incubated for 48 hrs by sulforhodamine B assay relative to control; format: functional; settings: SW-620, 48 h, read-out: Activity
RXF 393 [2] = experiment: Growth inhibition of human RXF393 cells assessed as cell growth at 100 uM incubated for 48 hrs by sulforhodamine B assay relative to control; format: functional; settings: RXF 393, 48 h, read-out: Activity
UO-31 = experiment: Growth inhibition of human UO31 cells assessed as cell growth at 1 uM incubated for 48 hrs by sulforhodamine B assay relative to control; format: functional; settings: UO-31, 48 h, read-out: Activity
MDA-MB-435 = experiment: Growth inhibition of human MDA-MB-435 cells assessed as cell growth at 0.1 uM incubated for 48 hrs by sulforhodamine B assay relative to control; format: functional; settings: MDA-MB-435, 48 h, read-out: Activity
COLO 205 = experiment: Growth inhibition of human COLO205 cells assessed as cell growth at 100 uM incubated for 48 hrs by sulforhodamine B assay relative to control; format: functional; settings: COLO 205, 48 h, read-out: Activity
LOX IMVI = experiment: Growth inhibition of human LOXIMVI cells assessed as cell growth at 100 uM incubated for 48 hrs by sulforhodamine B assay relative to control; format: functional; settings: read-out: Activity
OVCAR-5 = experiment: Growth inhibition of human OVCAR5 cells assessed as cell growth at 0.01 uM incubated for 48 hrs by sulforhodamine B assay relative to control; format: functional; settings: OVCAR-5, 48 h, read-out: Activity
OVCAR-3 [3] = experiment: Growth inhibition of human OVCAR3 cells assessed as cell growth at 0.1 uM incubated for 48 hrs by sulforhodamine B assay relative to control; format: functional; settings: OVCAR-3, 48 h, read-out: Activity
A498 = experiment: Growth inhibition of human A498 cells assessed as cell growth at 100 uM incubated for 48 hrs by sulforhodamine B assay relative to control; format: functional; settings: A498, 48 h, read-out: Activity
T47D [4] = experiment: Growth inhibition of human T47D cells assessed as cell growth at 100 uM incubated for 48 hrs by sulforhodamine B assay relative to control; format: functional; settings: read-out: Activity
OVCAR-3 [5] = experiment: Growth inhibition of human OVCAR3 cells assessed as cell growth at 1 uM incubated for 48 hrs by sulforhodamine B assay relative to control; format: functional; settings: OVCAR-3, 48 h, read-out: Activity
Hs-578T = experiment: Growth inhibition of human Hs578T cells assessed as cell growth at 1 uM incubated for 48 hrs by sulforhodamine B assay relative to control; format: functional; settings: read-out: Activity
SN12C = experiment: Growth inhibition of human SN12C cells assessed as cell growth at 1 uM incubated for 48 hrs by sulforhodamine B assay relative to control; format: functional; settings: read-out: Activity
KM12 [6] = experiment: Growth inhibition of human KM12 cells assessed as cell growth at 0.01 uM incubated for 48 hrs by sulforhodamine B assay relative to control; format: functional; settings: KM12, 48 h, read-out: Activity
SF-539 = experiment: Growth inhibition of human SF539 cells incubated for 48 hrs by sulforhodamine B assay; format: functional, cell-based; settings: SF-539, 48 h
SF-268 = experiment: Growth inhibition of human SF268 cells assessed as cell growth at 0.1 uM incubated for 48 hrs by sulforhodamine B assay relative to control; format: functional; settings: SF-268, 48 h, read-out: Activity
RXF 393 [7] = experiment: Growth inhibition of human RXF393 cells assessed as cell growth at 0.1 uM incubated for 48 hrs by sulforhodamine B assay relative to control; format: functional; settings: RXF 393, 48 h, read-out: Activity
NCI-H226 = experiment: Growth inhibition of human NCI-H226 cells assessed as cell growth at 0.1 uM incubated for 48 hrs by sulforhodamine B assay relative to control; format: functional; settings: NCI-H226, 48 h, read-out: Activity
K562 = experiment: Growth inhibition of human K562 cells assessed as cell growth at 100 uM incubated for 48 hrs by sulforhodamine B assay relative to control; format: functional; settings: K562, 48 h, read-out: Activity
T47D [8] = experiment: Growth inhibition of human T47D cells assessed as cell growth at 0.1 uM incubated for 48 hrs by sulforhodamine B assay relative to control; format: functional; settings: read-out: Activity
KM12 [9] = experiment: Growth inhibition of human KM12 cells assessed as cell growth at 100 uM incubated for 48 hrs by sulforhodamine B assay relative to control; format: functional; settings: KM12, 48 h, read-out: Activity
MCF7 [10] = experiment: Growth inhibition of human MCF7 cells incubated for 48 hrs by sulforhodamine B assay; format: functional, cell-based; settings: MCF7, 48 h
RPMI-8226 = experiment: Growth inhibition of human RPMI8226 cells assessed as cell growth at 0.1 uM incubated for 48 hrs by sulforhodamine B assay relative to control; format: functional; settings: RPMI-8226, 48 h, read-out: Activity
BT-549 = experiment: Growth inhibition of human BT549 cells assessed as cell growth at 100 uM incubated for 48 hrs by sulforhodamine B assay relative to control; format: functional; settings: BT-549, 48 h, read-out: Activity
HCT-15 [11] = experiment: Growth inhibition of human HCT15 cells assessed as cell growth at 1 uM incubated for 48 hrs by sulforhodamine B assay relative to control; format: functional; settings: HCT-15, 48 h, read-out: Activity
786-0 = experiment: Growth inhibition of human 786-0 cells assessed as cell growth at 1 uM incubated for 48 hrs by sulforhodamine B assay relative to control; format: functional; settings: 786-0, 48 h, read-out: Activity
IGROV-1 = experiment: Growth inhibition of human IGROV1 cells assessed as cell growth at 1 uM incubated for 48 hrs by sulforhodamine B assay relative to control; format: functional; settings: IGROV-1, 48 h, read-out: Activity
HCT-15 [12] = experiment: Growth inhibition of human HCT15 cells incubated for 48 hrs by sulforhodamine B assay; format: functional, cell-based; settings: HCT-15, 48 h
[13] = read-out: LC50 (the source's name)
[14] = read-out: pLC50 (the source's name) (converted)

## COc1cc(Cl)cc(-c2nn(-c3cccc(NC(=O)c4cccc(C(F)(F)F)c4)c3)cc2-c2ccncc2)c1
SF-295
  growth at 0.01 µM: 98%
OVCAR-4
  growth at 1 µM: 97%
CCRF-CEM
  growth at 0.01 µM: 96%
MCF7 [1]
  growth at 0.01 µM: 93%
SW-620
  growth at 0.1 µM: 99%
RXF 393 [2]
  growth at 100 µM: 19%
UO-31
  growth at 1 µM: 54%
MDA-MB-435
  growth at 0.1 µM: 95%
COLO 205
  growth at 100 µM: 45%
LOX IMVI
  growth at 100 µM: 41%
OVCAR-5
  growth at 0.01 µM: 58%
OVCAR-3 [3]
  growth at 0.1 µM: 108%
A498
  growth at 100 µM: 59%
T47D [4]
  growth at 100 µM: 15%
OVCAR-3 [5]
  growth at 1 µM: 102%
Hs-578T
  growth at 1 µM: 52%
SN12C
  growth at 1 µM: 58%
KM12 [6]
  growth at 0.01 µM: 110%
SF-539; read-out: GI50
  GI50: > 100 µM
SF-539; [13]
  CC50: > 100 µM
SF-539; read-out: TGI
  TGI: > 100 µM
SF-539; read-out: pGI50 (converted)
  GI50: > 100 µM
SF-539; [14]
  CC50: > 100 µM
SF-539; read-out: pTGI (converted)
  TGI: > 100 µM
SF-268
  growth at 0.1 µM: 100%
RXF 393 [7]
  growth at 0.1 µM: 65%
NCI-H226
  growth at 0.1 µM: 90%
K562
  growth at 100 µM: 32%
T47D [8]
  growth at 0.1 µM: 101%
KM12 [9]
  growth at 100 µM: 28%
MCF7 [10]; read-out: GI50
  GI50: 4.17 µM
MCF7 [10]; read-out: LC50
  LC50: > 100 µM
MCF7 [10]; read-out: TGI
  TGI: > 100 µM
MCF7 [10]; read-out: pGI50 (converted)
  GI50: 4.17 µM
MCF7 [10]; read-out: pLC50 (converted)
  LC50: > 100 µM
MCF7 [10]; read-out: pTGI (converted)
  TGI: > 100 µM
RPMI-8226
  growth at 0.1 µM: 97%
BT-549
  growth at 100 µM: 54%
HCT-15 [11]
  growth at 1 µM: 71%
786-0
  growth at 1 µM: 56%
IGROV-1
  growth at 1 µM: 94%
HCT-15 [12]; read-out: GI50
  GI50: 3.36 µM
HCT-15 [12]; [13]
  CC50: > 100 µM
HCT-15 [12]; read-out: TGI
  TGI: > 100 µM
HCT-15 [12]; read-out: pGI50 (converted)
  GI50: 3.31 µM
HCT-15 [12]; [14]
  CC50: > 100 µM
HCT-15 [12]; read-out: pTGI (converted)
  TGI: > 100 µM

## COc1cc(Cl)cc(-c2nn(-c3cccc(NC(=O)Nc4cccc(C(F)(F)F)c4)c3)cc2-c2ccncc2)c1
SF-295
  growth at 0.01 µM: 94%
OVCAR-4
  growth at 1 µM: 71%
CCRF-CEM
  growth at 0.01 µM: 98%
MCF7 [1]
  growth at 0.01 µM: 91%
SW-620
  growth at 0.1 µM: 100%
RXF 393 [2]
  growth at 100 µM: -80%
UO-31
  growth at 1 µM: 51%
MDA-MB-435
  growth at 0.1 µM: 97%
COLO 205
  growth at 100 µM: -95%
LOX IMVI
  growth at 100 µM: -53%
OVCAR-5
  growth at 0.01 µM: 94%
OVCAR-3 [3]
  growth at 0.1 µM: 98%
A498
  growth at 100 µM: -6%
T47D [4]
  growth at 100 µM: -25%
OVCAR-3 [5]
  growth at 1 µM: 38%
Hs-578T
  growth at 1 µM: 90%
SN12C
  growth at 1 µM: 59%
KM12 [6]
  growth at 0.01 µM: 97%
SF-539; read-out: GI50
  GI50: 1 µM
SF-539; [13]
  CC50: 21.1 µM
SF-539; read-out: TGI
  TGI: 45.2 µM
SF-539; read-out: pGI50 (converted)
  GI50: 1.91 µM
SF-539; [14]
  CC50: 21.4 µM
SF-539; read-out: pTGI (converted)
  TGI: 4.79 µM
SF-268
  growth at 0.1 µM: 94%
RXF 393 [7]
  growth at 0.1 µM: 92%
NCI-H226
  growth at 0.1 µM: 95%
K562
  growth at 100 µM: -22%
T47D [8]
  growth at 0.1 µM: 94%
KM12 [9]
  growth at 100 µM: -48%
MCF7 [10]; read-out: GI50
  GI50: 1.48 µM
MCF7 [10]; read-out: LC50
  LC50: > 100 µM
MCF7 [10]; read-out: TGI
  TGI: 75.7 µM
MCF7 [10]; read-out: pGI50 (converted)
  GI50: 1.48 µM
MCF7 [10]; read-out: pLC50 (converted)
  LC50: > 100 µM
MCF7 [10]; read-out: pTGI (converted)
  TGI: 7.59 µM
RPMI-8226
  growth at 0.1 µM: 98%
BT-549
  growth at 100 µM: -48%
HCT-15 [11]
  growth at 1 µM: 57%
786-0
  growth at 1 µM: 77%
IGROV-1
  growth at 1 µM: 85%
HCT-15 [12]; read-out: GI50
  GI50: 1.34 µM
HCT-15 [12]; [13]
  CC50: 50 µM
HCT-15 [12]; read-out: TGI
  TGI: 10.6 µM
HCT-15 [12]; read-out: pGI50 (converted)
  GI50: 1.35 µM
HCT-15 [12]; [14]
  CC50: 50.1 µM
HCT-15 [12]; read-out: pTGI (converted)
  TGI: 10.7 µM
